Reference: the supplement of paper PMC10307832

Legend:
Test in all cases: relative viability (nuclei count vs DMSO), 5 days (fraction); higher = more cells survive
Metformin + Luminespib = compound: CN(C)C(=N)NC(=N)N [Metformin] + CCNC(=O)c1noc(-c2cc(C(C)C)c(O)cc2O)c1-c1ccc(CN2CCOCC2)cc1 [Luminespib] (partner 0.01 µM)
Summary of the method: (§1)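 Lung cancer cell lines in 1536-well plates got either a single drug or a fixed anchor-drug dose together with five library-drug doses (not always all listed) in √10 steps, by pin tool, on the day after seeding. Nuclei were counted after 5 days, and relative viability is the treated-to-vehicle ratio of nuclei counts. Values are medians of duplicate plates.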

Apatinib + Trametinib = compound: N#CC1(c2ccc(NC(=O)c3cccnc3NCc3ccncc3)cc2)CCCC1 [Apatinib] + CC(=O)Nc1cccc(-n2c(=O)n(C3CC3)c(=O)c3c(Nc4ccc(I)cc4F)n(C)c(=O)c(C)c32)c1 [Trametinib] (partner 0.02 µM)
Summary of the method: as §1

Apatinib + Linsitinib = compound: N#CC1(c2ccc(NC(=O)c3cccnc3NCc3ccncc3)cc2)CCCC1 [Apatinib] + C[C@]1(O)C[C@@H](c2nc(-c3ccc4ccc(-c5ccccc5)nc4c3)c3c(N)nccn32)C1 [Linsitinib] (partner 1 µM)
Summary of the method: as §1

Apatinib + Decitabine = compound: N#CC1(c2ccc(NC(=O)c3cccnc3NCc3ccncc3)cc2)CCCC1 [Apatinib] + Nc1ncn([C@H]2C[C@H](O)[C@@H](CO)O2)c(=O)n1 [Decitabine] (partner 2 µM)
Summary of the method: as §1

Row | Cell Line | relative viability (Metformin + Luminespib; first compound 10 µM) | relative viability (Metformin + Luminespib; first compound 31.62 µM) | relative viability (Metformin + Luminespib; first compound 100 µM) | relative viability (Metformin + Luminespib; first compound 316.23 µM) | relative viability (Metformin + Luminespib; first compound 1000 µM) | relative viability (Apatinib + Trametinib; first compound 0.08 µM) | relative viability (Apatinib + Trametinib; first compound 0.253 µM) | relative viability (Apatinib + Trametinib; first compound 0.8 µM) | relative viability (Apatinib + Trametinib; first compound 2.53 µM) | relative viability (Apatinib + Trametinib; first compound 8 µM) | relative viability (Apatinib + Linsitinib; first compound 0.08 µM) | relative viability (Apatinib + Linsitinib; first compound 0.253 µM) | relative viability (Apatinib + Linsitinib; first compound 0.8 µM) | relative viability (Apatinib + Linsitinib; first compound 2.53 µM) | relative viability (Apatinib + Linsitinib; first compound 8 µM) | relative viability (Apatinib + Decitabine; first compound 0.08 µM) | relative viability (Apatinib + Decitabine; first compound 0.253 µM) | relative viability (Apatinib + Decitabine; first compound 0.8 µM) | relative viability (Apatinib + Decitabine; first compound 2.53 µM) | relative viability (Apatinib + Decitabine; first compound 8 µM)
1 | NCI-H2085 | 0.429 | 0.441 | 0.404 | 0.336 | 0.475 | 0.608 | 0.53 | 0.39 | 0.576 | 0.426 | 0.879 | 0.987 | 0.949 | 0.745 | 0.815 | 0.592 | 0.573 | 0.582 | 0.587 | 0.712
2 | RERF-LC-KJ | 1.11 | 1.15 | 0.979 | 0.808 | 0.864 | 0.89 | 0.849 | 0.891 | 0.758 | 0.711 | 0.908 | 0.908 | 0.821 | 0.845 | 0.757 | 0.755 | 0.7 | 0.637 | 0.66 | 0.746
3 | LOU-NH91 | 0.343 | 0.404 | 0.316 | 0.344 | 0.376 | 0.826 | 0.745 | 0.716 | 0.717 | 0.729 | 0.94 | 0.916 | 0.717 | 0.845 | 0.777 | 0.85 | 0.827 | 0.732 | 0.741 | 0.776
4 | NCI-H2009 | 1.07 | 1.09 | 1.08 | 1.02 | 0.93 | 0.341 | 0.285 | 0.31 | 0.25 | 0.229 | 1.26 | 1.16 | 1.17 | 1.08 | 0.799 | 0.367 | 0.411 | 0.35 | 0.508 | 0.581
5 | UMC-11 | 1.1 | 1.14 | 1.08 | 1.1 | 0.994 | 0.816 | 0.686 | 0.631 | 0.668 | 0.647 | 0.999 | 1.01 | 0.979 | 0.911 | 0.93 | 0.711 | 0.64 | 0.575 | 0.714 | 0.629
6 | NCI-H2347 | 0.328 | 1.03 |  | 0.537 | 0.791 | 0.294 | 0.228 | 0.249 | 0.291 | 0.268 | 1 | 0.888 | 1.01 | 0.932 | 0.9 | 0.666 | 0.592 | 0.67 | 0.674 | 0.804
7 | LU99A | 0.223 | 0.233 | 0.238 | 0.269 | 0.252 | 0.58 | 0.552 | 0.543 | 0.486 | 0.29 | 0.589 | 0.549 | 0.515 | 0.457 | 0.47 | 1.01 | 1.01 | 0.843 | 0.895 | 0.774
8 | NCI-H3122 | 0.076 | 0.0878 | 0.0846 | 0.0862 | 0.113 | 0.251 | 0.234 | 0.247 | 0.181 | 0.176 | 0.996 | 1.03 | 0.983 | 1.05 | 0.911 | 0.505 | 0.431 | 0.44 | 0.495 | 0.433
